The target of this test is T1, BA/F3-FLT3-ITD + D835Y (Homo sapiens, UniProt P36888, D835Y, cells depend on it, form not given).
T1 sequence (P36888 with tags, fused parts or gaps INS600HVDFREYEYD/D835Y): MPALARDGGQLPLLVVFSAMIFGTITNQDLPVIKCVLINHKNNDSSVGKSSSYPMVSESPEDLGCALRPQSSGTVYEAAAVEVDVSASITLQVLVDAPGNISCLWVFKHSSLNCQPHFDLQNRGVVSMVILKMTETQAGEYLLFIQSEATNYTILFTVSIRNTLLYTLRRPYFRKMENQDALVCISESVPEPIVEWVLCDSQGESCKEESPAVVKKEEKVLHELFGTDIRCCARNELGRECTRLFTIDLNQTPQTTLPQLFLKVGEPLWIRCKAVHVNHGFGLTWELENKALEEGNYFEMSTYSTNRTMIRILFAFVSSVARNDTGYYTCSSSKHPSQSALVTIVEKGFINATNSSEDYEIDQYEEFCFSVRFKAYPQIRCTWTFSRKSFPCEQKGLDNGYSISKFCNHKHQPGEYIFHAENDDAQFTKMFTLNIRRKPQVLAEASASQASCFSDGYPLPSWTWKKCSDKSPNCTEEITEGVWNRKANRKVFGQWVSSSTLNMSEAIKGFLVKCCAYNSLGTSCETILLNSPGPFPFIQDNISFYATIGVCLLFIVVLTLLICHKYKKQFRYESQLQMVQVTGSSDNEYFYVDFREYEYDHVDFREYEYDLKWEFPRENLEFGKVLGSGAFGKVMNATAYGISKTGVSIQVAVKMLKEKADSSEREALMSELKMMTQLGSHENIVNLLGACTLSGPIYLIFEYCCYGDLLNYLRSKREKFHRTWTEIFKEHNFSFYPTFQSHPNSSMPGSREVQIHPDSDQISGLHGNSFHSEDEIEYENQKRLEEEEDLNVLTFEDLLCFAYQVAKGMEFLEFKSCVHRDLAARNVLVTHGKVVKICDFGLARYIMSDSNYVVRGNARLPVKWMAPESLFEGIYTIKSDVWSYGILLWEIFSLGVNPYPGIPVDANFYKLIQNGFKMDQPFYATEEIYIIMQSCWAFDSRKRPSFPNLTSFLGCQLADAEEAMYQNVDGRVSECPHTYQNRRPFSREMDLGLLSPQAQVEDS
Description: Engineered BA/F3 cell growth assay, FLT3 ITD/D835Y. It counts as cell-based, murine. The note with it: 3 d growth. An outline of the steps: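 Murine Ba/F3 cells transfected with full-length FLT3 ITD/D835Y, grown without IL-3 so growth depends on FLT3. Seeded at 1×10^4 cells/well, 8-point 1:3 series to 1 μM top (0.2% DMSO), 3 days at 37 °C. CellTiter-Glo luminescence (ATP) versus concentration gave IC50.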

Take `COc1ncc(NC(=O)Cc2ccc(-c3cnc4[nH]c(Cl)cc4c3)c(F)c2)cc1C(F)(F)F` [Compound P-0046, 2-[4-(2-chloro-1H-pyrrolo[2,3-b]pyridin-5-yl)-3-fluoro-phenyl]-N-[6-methoxy-5-(trifluoromethyl)-3-pyridyl]acetamide]: the GI50 fell in the range of 0.0001 to 10 µM.
The value for `COc1nn(C[C@H](C)O)cc1Nc1ncc(-c2ccc(CC(=O)Nc3cncc(C(F)(F)F)c3)c(F)c2)cn1` [Compound P-0050, 2-[2-fluoro-4-[2-[[1-[(2S)-2-hydroxypropyl]-3-methoxy-pyrazol-4-yl]amino]pyrimidin-5-yl]phenyl]-N-[5-(trifluoromethyl)-3-pyridyl]acetamide] was 0.0001 to 10 µM; that for `O=C(Cc1ccc(-c2cnc3[nH]nc(C4CC4)c3c2)cc1F)Nc1cncc(C(F)(F)F)c1` [Compound P-0072, 2-[4-(3-cyclopropyl-1H-pyrazolo[3,4-b]pyridin-5-yl)-2-fluoro-phenyl]-N-[5-(trifluoromethyl)-3-pyridyl]acetamide] was 0.0001 to 10 µM.
With `CC(=O)c1c[nH]c2ncc(-c3ccc(CC(=O)Nc4cnc(C)c(C(F)(F)F)c4)c(F)c3)cc12` [Compound P-0063, 2-[4-(3-acetyl-1H-pyrrolo[2,3-b]pyridin-5-yl)-2-fluoro-phenyl]-N-[6-methyl-5-(trifluoromethyl)-3-pyridyl]acetamide], the GI50 fell in the range of 0.0001 to 10 µM.
With `Cn1cc(Nc2ncc(-c3ccc(CC(=O)NCc4ccccn4)c(F)c3)cn2)cn1` [Compound P-0088, 2-[2-fluoro-4-[2-[(1-methylpyrazol-4-yl)amino]pyrimidin-5-yl]phenyl]-N-(2-pyridylmethyl)acetamide], the GI50 was in the range of 0.0001 to 10 µM.
With `Cc1ncc(NC(=O)Cc2ccc(-c3cnc4[nH]cc(F)c4c3)cc2F)cc1C(F)(F)F` [Compound P-0062, 2-[2-fluoro-4-(3-fluoro-1H-pyrrolo[2,3-b]pyridin-5-yl)phenyl]-N-[6-methyl-5-(trifluoromethyl)-3-pyridyl]acetamide], the GI50 fell in the range of 0.0001 to 10 µM.
As to `COc1cncc(NC(=O)Cc2ccc(-c3cnc(Nc4cnn(C)c4)nc3)cc2F)c1` [Compound P-0086, 2-[2-fluoro-4-[2-[(1-methylpyrazol-4-yl)amino]pyrimidin-5-yl]phenyl]-N-(5-methoxy-3-pyridyl)acetamide], the GI50 lay in the range of 0.0001 to 10 µM.
The value for `COc1ncc(NC(=O)Cc2ccc(-c3cnc(Nc4cnn(C)c4)nc3)cc2F)cc1C(F)(F)F` [Compound P-0089, 2-[2-fluoro-4-[2-[(1-methylpyrazol-4-yl)amino]pyrimidin-5-yl]phenyl]-N-[6-methoxy-5-(trifluoromethyl)-3-pyridyl]acetamide] was 0.0001 to 10 µM.
For the compound `Cn1cc(Nc2ncc(-c3ccc(CC(=O)NCc4ccc(C(F)(F)F)cn4)cc3)cn2)cn1` [Compound P-0162, 2-[4-[2-[(1-methylpyrazol-4-yl)amino]pyrimidin-5-yl]phenyl]-N-[[5-(trifluoromethyl)-2-pyridyl]methyl]acetamide], the GI50 was 0.0001 to 10 µM.
The value for `Cn1cc(Nc2ncc(-c3ccc(CC(=O)NCc4ccc(C(F)(F)F)nc4)c(F)c3)cn2)cn1` [Compound P-0087, 2-[2-fluoro-4-[2-[(1-methylpyrazol-4-yl)amino]pyrimidin-5-yl]phenyl]-N-[[6-(trifluoromethyl)-3-pyridyl]methyl]acetamide] was 0.0001 to 10 µM.
Take `CC(C)(C)c1ccc(NC(=O)Cc2ccc(-c3cnc4[nH]cc(F)c4c3)cc2F)cn1` [Compound P-0043, N-(6-tert-butyl-3-pyridyl)-2-[2-fluoro-4-(3-fluoro-1H-pyrrolo[2,3-b]pyridin-5-yl)phenyl]acetamide]: the GI50 was 0.0001 to 10 µM.
As for `Cc1nn(C)cc1Nc1ncc(-c2ccc(CC(=O)Nc3cnc(C)c(C(F)(F)F)c3)c(F)c2)cn1` [Compound P-0077, 2-[4-[2-[(1,3-dimethylpyrazol-4-yl)amino]pyrimidin-5-yl]-2-fluoro-phenyl]-N-[6-methyl-5-(trifluoromethyl)-3-pyridyl]acetamide], the GI50 lay in the range of 0.0001 to 10 µM.
The value for `Cc1cc(CC(=O)Nc2cccc(C(F)(F)F)c2)ccc1-c1cnc2[nH]c(-c3ccccc3)cc2c1` [Compound P-0002, 2-[3-methyl-4-(2-phenyl-1H-pyrrolo[2,3-b]pyridin-5-yl)phenyl]-N-[3-(trifluoromethyl)phenyl]acetamide] was 0.0001 to 10 µM.
The value for `Cc1ncc(NC(=O)Cc2ccc(-c3cnc(Nc4cnn5ccccc45)nc3)cc2F)cc1C(F)(F)F` [Compound P-0065, 2-(2-fluoro-4-(2-(pyrazolo[1,5-a]pyridin-3-ylamino)pyrimidin-5-yl)phenyl)-N-(6-methyl-5-(trifluoromethyl)pyridin-3-yl)acetamide] was 0.0001 to 10 µM; that for `Cc1ncc(NC(=O)Cc2ccc(-c3cnc(Nc4cnn(C)c4C)nc3)cc2F)cc1C(F)(F)F` [Compound P-0076, 2-[4-[2-[(1,5-dimethylpyrazol-4-yl)amino]pyrimidin-5-yl]-2-fluoro-phenyl]-N-[6-methyl-5-(trifluoromethyl)-3-pyridyl]acetamide] was 0.0001 to 10 µM.
The value for `Cn1cc(Nc2ncc(-c3ccc(CC(=O)Nc4cncc(C(C)(F)F)c4)c(F)c3)cn2)cn1` [Compound P-0090, N-[5-(1,1-difluoroethyl)-3-pyridyl]-2-[2-fluoro-4-[2-[(1-methylpyrazol-4-yl)amino]pyrimidin-5-yl]phenyl]acetamide] was 0.0001 to 10 µM; that for `Cn1cnc(Nc2ncc(-c3cc(F)c(CC(=O)Nc4cncc(C(F)(F)F)c4)cc3F)cn2)c1` [Compound P-0078, 2-(2,5-difluoro-4-(2-((1-methyl-1H-imidazol-4-yl)amino)pyrimidin-5-yl)phenyl)-N-(5-(trifluoromethyl)pyridin-3-yl)acetamide] was 0.0001 to 10 µM.
Regarding `COc1ncc(NC(=O)Cc2cc(F)c(-c3cnc4[nH]c(Cl)cc4c3)cc2F)cc1C(F)(F)F` [Compound P-0045, 2-[4-(2-chloro-1H-pyrrolo[2,3-b]pyridin-5-yl)-2,5-difluoro-phenyl]-N-[6-methoxy-5-(trifluoromethyl)-3-pyridyl]acetamide], the GI50 fell in the range of 0.0001 to 10 µM.
The value for `O=C(Cc1ccc(-c2cnc3[nH]cc(F)c3c2)cc1F)Nc1cncc(C(F)(F)F)c1` [Compound P-0053, 2-[2-fluoro-4-(3-fluoro-1H-pyrrolo[2,3-b]pyridin-5-yl)phenyl]-N-[5-(trifluoromethyl)-3-pyridyl]acetamide] was 0.0001 to 10 µM.
As to `Cc1ncc(NC(=O)Cc2ccc(-c3cnc4[nH]nc(C5CC5)c4c3)cc2F)cc1C(F)(F)F` [Compound P-0066, 2-(4-(3-cyclopropyl-1H-pyrazolo[3,4-b]pyridin-5-yl)-2-fluorophenyl)-N-(6-methyl-5-(trifluoromethyl)pyridin-3-yl)acetamide], the concentration for 50% growth inhibition (GI50) lay in the range of 0.0001 to 10 µM.
Regarding `COc1ncc(NC(=O)Cc2ccc(-c3cnc4[nH]cc(C(C)=O)c4c3)cc2F)cc1C(F)(F)F` [Compound P-0035, 2-[4-(3-acetyl-1H-pyrrolo[2,3-b]pyridin-5-yl)-2-fluoro-phenyl]-N-[6-methoxy-5-(trifluoromethyl)-3-pyridyl]acetamide], the GI50 fell in the range of 0.0001 to 10 µM.
Take `CCC(=O)c1c[nH]c2ncc(-c3ccc(CC(=O)Nc4cnc(C)c(C(F)(F)F)c4)c(F)c3)cc12` [Compound P-0070, 2-[2-fluoro-4-(3-propanoyl-1H-pyrrolo[2,3-b]pyridin-5-yl)phenyl]-N-[6-methyl-5-(trifluoromethyl)-3-pyridyl]acetamide]: the GI50 was 0.0001 to 10 µM.
The value for `COc1ncc(NC(=O)Cc2ccc(-c3cnc4[nH]cc(F)c4c3)cc2F)cc1C(F)(F)F` [Compound P-0034, 2-[2-fluoro-4-(3-fluoro-1H-pyrrolo[2,3-b]pyridin-5-yl)phenyl]-N-[6-methoxy-5-(trifluoromethyl)-3-pyridyl]acetamide] was 0.0001 to 10 µM.
Turning to `Cc1ncc(NC(=O)Cc2ccc(-c3cnc(Nc4cn[nH]c4)nc3)cc2F)cc1C(F)(F)F` [Compound P-0027, 2-[2-fluoro-4-[2-(1H-pyrazol-4-ylamino)pyrimidin-5-yl]phenyl]-N-[6-methyl-5-(trifluoromethyl)-3-pyridyl]acetamide], the GI50 is 0.0001 to 10 µM.
Regarding `COc1ncc(NC(=O)Cc2ccc(-c3cnc4[nH]cc(F)c4c3)c(F)c2)cc1C(F)(F)F` [Compound P-0048, 2-[3-fluoro-4-(3-fluoro-1H-pyrrolo[2,3-b]pyridin-5-yl)phenyl]-N-[6-methoxy-5-(trifluoromethyl)-3-pyridyl]acetamide], the GI50 lay in the range of 0.0001 to 10 µM.

The values above are taken from patent US10160747B2, “Compounds and methods for kinase modulation, and indications therefor” (Plexxikon Inc., priority 2016, dated 2018).
